Results on seven molecules are retold here after patent US20240270762A1, “PENICILLIN-BINDING PROTEIN INHIBITORS” (priority 2021, published 2024).

Structures are written as SMILES. ≈ marks a conversion by molar mass, not a printed value.

Assay [1] deals with A. baumannii CDC-0083. The assay is described as follows: microbe, parasite or virus in culture. It is filed as cell-based. Conditions: Acinetobacter baumannii, CDC0083, read-out: MIC, A. baumannii CDC-0083.
The subject of assay [2] is N. gonorrhoeae FA1090. As to the kind of experiment: Liquid broth MIC in Fastidious broth. Conditions: Neisseria gonorrhoeae, FA1090, read-out: Minimum Inhibitory Concentration (MIC), N. gonorrhoeae FA 1090.
Assay [3] relates to B. humptydooensis ATCC BAA-2767. The assay is described as follows: microbe, parasite or virus in culture. The format is cell-based. Conditions: Burkholderia humptydooensis, ATCCBAA2767, read-out: Minimum inhibitory concentration (MIC), B. humptydooensis ATCC BAA-2767.
Assay [4] concerns N. gonorrhoeae WHO L. The assay is described as follows: Liquid broth MIC in Fastidious broth. Conditions: Neisseria gonorrhoeae, read-out: Minimum Inhibitory Concentration (MIC), N. gonorrhoeae WHO L.
The test system of assay [5] is N. gonorrhoeae WHO Z. As to the kind of experiment: Liquid broth MIC in Fastidious broth. Conditions: Neisseria gonorrhoeae, read-out: Minimum Inhibitory Concentration (MIC), N. gonorrhoeae WHO Z.
For assay [6], the target named is T1, PBP3 from Escherichia coli (K-12) (Escherichia coli, UniProt P0AD68).
T1 construct: made in house
T1 sequence (P0AD68 1-577): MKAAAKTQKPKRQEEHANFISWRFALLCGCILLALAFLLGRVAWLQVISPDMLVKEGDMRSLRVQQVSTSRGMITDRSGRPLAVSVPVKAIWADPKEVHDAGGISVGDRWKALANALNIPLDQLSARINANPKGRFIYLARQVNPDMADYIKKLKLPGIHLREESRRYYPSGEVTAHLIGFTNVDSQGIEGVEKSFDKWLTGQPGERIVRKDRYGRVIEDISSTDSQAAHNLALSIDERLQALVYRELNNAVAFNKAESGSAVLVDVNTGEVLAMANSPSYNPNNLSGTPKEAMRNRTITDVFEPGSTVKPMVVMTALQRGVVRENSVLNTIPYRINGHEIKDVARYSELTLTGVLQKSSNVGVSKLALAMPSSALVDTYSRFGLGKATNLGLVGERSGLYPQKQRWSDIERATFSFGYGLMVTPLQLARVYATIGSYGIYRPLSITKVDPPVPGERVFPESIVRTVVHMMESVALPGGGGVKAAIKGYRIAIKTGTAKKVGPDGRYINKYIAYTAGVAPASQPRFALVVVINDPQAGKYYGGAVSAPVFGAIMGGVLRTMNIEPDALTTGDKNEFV
The assay is described as follows: Bocillin-FL fluorescence polarization competition binding, E. coli PBP3. In outline: (§1)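 Purified PBPs pre-incubated with inhibitor (E. coli PBP3 1.5 μM, 30 min; P. aeruginosa PBP3 0.75 μM, A. baumannii PBP1a 1 μM and PBP3 0.2 μM, 15 min), then Bocillin-FL 0.1 μM (0.05 μM for PBP1a) added; FP read up to 60 min. EC50 = concentration halving bound Bocillin-FL.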
On the technique in general: Fluorescence polarisation rises when a labelled molecule tumbles more slowly, as on binding a larger partner.

In assay [7] the test system is A. baumannii ATCC 19606. The assay is described as follows: microbe, parasite or virus in culture. It is filed as cell-based. Conditions: Acinetobacter baumannii, ATCC19606, read-out: MIC, A. baumannii ATCC 19606.
Assay [8] relates to N. gonorrhoeae WHO X. As to the kind of experiment: Liquid broth MIC in Fastidious broth. Conditions: Neisseria gonorrhoeae, read-out: Minimum Inhibitory Concentration (MIC), N. gonorrhoeae WHO X.
Assay [9] concerns P. aeruginosa CDC-0090. The assay is described as follows: microbe, parasite or virus in culture. It is filed as cell-based. Conditions: Pseudomonas aeruginosa, CDC0090, read-out: Minimum inhibitory concentration, P. aeruginosa CDC-0090.
In assay [10] the test system is P. aeruginosa ATCC 35151. The assay is described as follows: microbe, parasite or virus in culture. Conditions: Pseudomonas aeruginosa, ATCC35151, read-out: Minimum inhibitory concentration, P. aeruginosa ATCC 35151. It is filed as cell-based.
Assay [11] addresses T2, PBP3 from Pseudomonas aeruginosa (PAO1) (Pseudomonas aeruginosa, UniProt G3XD46).
T2 construct: made in house
The assay is described as follows: Bocillin-FL fluorescence polarization competition binding, P. aeruginosa PBP3. Conditions: Binding affinity to P. aeruginosa PBP3; fluorescence polarization competition binding assay using Bocillin-FL; read-out: P. aeruginosa PBP3 Potency. The essentials: as §1

Assay [12] has as its system N. gonorrhoeae CDC-0197. The assay is described as follows: Liquid broth MIC in Fastidious broth. Conditions: Neisseria gonorrhoeae, CDC0197, read-out: Minimum Inhibitory Concentration (MIC), N. gonorrhoeae CDC-0197.
Assay [13] relates to N. gonorrhoeae WHO M. As to the kind of experiment: Liquid broth MIC in Fastidious broth. Conditions: Neisseria gonorrhoeae, read-out: Minimum Inhibitory Concentration (MIC), N. gonorrhoeae WHO M.
Assay [14] deals with P. aeruginosa (ΔmexAB-oprM). The assay is described as follows: Broth microdilution MIC in iron-depleted CAMHB (IDM). The format is cell-based. Conditions: Pseudomonas aeruginosa; iron-depleted CAMHB (IDM); […]; read-out: Minimum inhibitory concentration, P. aeruginosa ΔmexAB-oprM.
The test system of assay [15] is N. gonorrhoeae WHO K. The assay is described as follows: Liquid broth MIC in Fastidious broth. Conditions: Neisseria gonorrhoeae, read-out: Minimum Inhibitory Concentration (MIC), N. gonorrhoeae WHO K.

T2 sequence (G3XD46 whole entry): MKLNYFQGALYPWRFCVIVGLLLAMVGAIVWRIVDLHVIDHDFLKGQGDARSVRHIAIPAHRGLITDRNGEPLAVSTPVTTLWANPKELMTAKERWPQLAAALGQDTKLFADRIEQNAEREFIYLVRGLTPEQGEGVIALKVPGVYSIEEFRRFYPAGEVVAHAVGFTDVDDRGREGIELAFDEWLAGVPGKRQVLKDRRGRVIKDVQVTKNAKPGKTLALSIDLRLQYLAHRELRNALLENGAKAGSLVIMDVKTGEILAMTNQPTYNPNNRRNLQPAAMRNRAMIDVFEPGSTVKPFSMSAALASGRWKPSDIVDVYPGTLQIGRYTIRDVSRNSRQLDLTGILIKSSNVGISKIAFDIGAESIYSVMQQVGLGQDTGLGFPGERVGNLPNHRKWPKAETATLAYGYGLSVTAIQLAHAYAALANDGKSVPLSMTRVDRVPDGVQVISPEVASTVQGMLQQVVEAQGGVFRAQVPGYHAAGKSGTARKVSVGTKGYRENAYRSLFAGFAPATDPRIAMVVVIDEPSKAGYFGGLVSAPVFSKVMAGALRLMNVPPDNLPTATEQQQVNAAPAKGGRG

For the molecule `O=C(NCCN1CCN(C(=O)N[C@@H](C(=O)N[C@H]2Cc3ccc(F)c(C(=O)O)c3OB2O)c2cc(F)c(O)c(O)c2Cl)C(=O)C1=O)Nc1cccnc1` [Example 222, (R)-3-((R)-2-(2-chloro-5-fluoro-3,4-dihydroxyphenyl)-2-(2,3-dioxo-4-(2-(3-(pyridin-3-yl)ureido)ethyl)piperazine-1-carboxamido)acetamido)-7-fluoro-2-hydroxy-3,4-dihydro-2H-benzo[e][1,2]oxaborinine-8-carboxylic acid], the MIC in assay [1] was 32 to 64 µg/mL (≈ 42.9 to 85.8 µM); in assay [2] it was 1 to 2 µg/mL (≈ 1.34 to 2.68 µM); in assay [3], 2 to 4 µg/mL (≈ 2.68 to 5.36 µM); in [4], > 64 µg/mL; in [5] it was > 64 µg/mL; in assay [7], < 1 µg/mL. Further, the MIC in [8] was > 64 µg/mL; in assay [9] it was 2 to 4 µg/mL (≈ 2.68 to 5.36 µM); in [10], < 1 µg/mL; in assay [12], > 64 µg/mL; in [13], 4 to 8 µg/mL (≈ 5.36 to 10.7 µM); in assay [14] it was < 1 µg/mL. Besides, the MIC in assay [15] is > 64 µg/mL. In addition, in assay [6], the EC50 is < 10 µM. In addition, in assay [11], the IC50 was < 10 µM.
In the case of `CN(CCN1CCN(C(=O)NC(C(=O)N[C@H]2Cc3ccc(F)c(C(=O)O)c3OB2O)c2cc(F)c(O)c(O)c2Cl)C(=O)C1=O)S(=O)(=O)c1ccc(C(N)=O)cc1` (stereo partly drawn) [Example 223, (3R)-3-(2-(4-(2-((4-carbamoyl-N-methylphenyl)sulfonamido)ethyl)-2,3-dioxopiperazine-1-carboxamido)-2-(2-chloro-5-fluoro-3,4-dihydroxyphenyl)acetamido)-7-fluoro-2-hydroxy-3,4-dihydro-2H-benzo[e][1,2]oxaborinine-8-carboxylic acid], the MIC in [1] was 2 to 4 µg/mL (≈ 2.43 to 4.86 µM); in assay [2], 4 to 8 µg/mL (≈ 4.86 to 9.72 µM); in [3] it was < 1 µg/mL; in [4] it was > 64 µg/mL; in assay [5] it was 16 to 32 µg/mL (≈ 19.4 to 38.9 µM); in assay [7] it was < 1 µg/mL. For the same molecule, the MIC is > 64 µg/mL in assay [8]; 2 to 4 µg/mL (≈ 2.43 to 4.86 µM) in assay [9]; < 1 µg/mL in assay [10]; > 64 µg/mL in [12]; 16 to 32 µg/mL (≈ 19.4 to 38.9 µM) in assay [13]; < 1 µg/mL in assay [14]. Also, the MIC in [15] was > 64 µg/mL. In addition, in [6], the EC50 was < 10 µM. In addition, the IC50 in assay [11] was < 10 µM.
As to `CN(CCN1CCN(C(=O)NC(C(=O)N[C@H]2Cc3ccc(F)c(C(=O)O)c3OB2O)c2cc(F)c(O)c(O)c2Cl)C(=O)C1=O)S(=O)(=O)c1cccc(C(N)=O)c1` (stereo partly drawn) [Example 224, (3R)-3-(2-(4-(2-((3-carbamoyl-N-methylphenyl)sulfonamido)ethyl)-2,3-dioxopiperazine-1-carboxamido)-2-(2-chloro-5-fluoro-3,4-dihydroxyphenyl)acetamido)-7-fluoro-2-hydroxy-3,4-dihydro-2H-benzo[e][1,2]oxaborinine-8-carboxylic acid], the MIC in assay [1] is 2 to 4 µg/mL (≈ 2.43 to 4.86 µM); in [2], 4 to 8 µg/mL (≈ 4.86 to 9.72 µM); in [3] it was < 1 µg/mL; in [4], > 64 µg/mL; in assay [5], > 64 µg/mL; in assay [7], < 1 µg/mL. For the same molecule, the MIC in assay [8] is > 64 µg/mL; in [9], < 1 µg/mL; in assay [10], < 1 µg/mL; in assay [12], > 64 µg/mL; in [13], 16 to 32 µg/mL (≈ 19.4 to 38.9 µM); in assay [14] it was < 1 µg/mL. In [15], the MIC is > 64 µg/mL. Besides, the EC50 in assay [6] was < 10 µM. In addition, the IC50 in assay [11] is < 10 µM.
On to `CN(CCN1CCN(C(=O)N[C@@H](C(=O)N[C@H]2Cc3ccc(F)c(C(=O)O)c3OB2O)c2cc(F)c(O)c(O)c2Cl)C(=O)C1=O)Cc1cccc(C(N)=O)c1` [Example 225, (R)-3-((R)-2-(4-(2-((3-carbamoylbenzyl)(methyl)amino)ethyl)-2,3-dioxopiperazine-1-carboxamido)-2-(2-chloro-5-fluoro-3,4-dihydroxyphenyl)acetamido)-7-fluoro-2-hydroxy-3,4-dihydro-2H-benzo[e][1,2]oxaborinine-8-carboxylic acid], for which the MIC in assay [1] was < 1 µg/mL; in [2], 1 to 2 µg/mL (≈ 1.29 to 2.59 µM); in [3], < 1 µg/mL; in [4], > 64 µg/mL; in assay [5], 16 to 32 µg/mL (≈ 20.7 to 41.4 µM); in [7], < 1 µg/mL. Besides, the MIC in assay [8] was > 64 µg/mL; in [9], < 1 µg/mL; in assay [10], < 1 µg/mL; in assay [12], 16 to 32 µg/mL (≈ 20.7 to 41.4 µM); in assay [13] it was 16 to 32 µg/mL (≈ 20.7 to 41.4 µM); in assay [14], < 1 µg/mL. Also, the MIC in [15] is > 64 µg/mL. The EC50 in [6] was in the range of 10 to 50 µM. In addition, the IC50 in [11] was < 10 µM.
Turning to `CN(CCN1CCN(C(=O)N[C@@H](C(=O)N[C@H]2Cc3ccc(F)c(C(=O)O)c3OB2O)c2cc(F)c(O)c(O)c2Cl)C(=O)C1=O)Cc1ccc(C(N)=O)cc1` [Example 226, (R)-3-((R)-2-(4-(2-((4-carbamoylbenzyl)(methyl)amino)ethyl)-2,3-dioxopiperazine-1-carboxamido)-2-(2-chloro-5-fluoro-3,4-dihydroxyphenyl)acetamido)-7-fluoro-2-hydroxy-3,4-dihydro-2H-benzo[e][1,2]oxaborinine-8-carboxylic acid], the MIC in assay [1] was < 1 µg/mL; in assay [2] it was 1 to 2 µg/mL (≈ 1.29 to 2.59 µM); in assay [3], < 1 µg/mL; in [4], > 64 µg/mL; in [5] it was 16 to 32 µg/mL (≈ 20.7 to 41.4 µM); in [7] it was < 1 µg/mL. For the same molecule, the MIC in assay [8] is > 64 µg/mL; in [9], < 1 µg/mL; in assay [10], < 1 µg/mL; in assay [12], > 64 µg/mL; in assay [13], 16 to 32 µg/mL (≈ 20.7 to 41.4 µM); in assay [14], < 1 µg/mL. For the same molecule, the MIC in assay [15] was > 64 µg/mL. Further, in assay [6], the EC50 is < 10 µM. For the same molecule, in assay [11], the IC50 was < 10 µM.
For the molecule `O=C(NCCCN1CCN(C(=O)NC(C(=O)N[C@H]2Cc3ccc(F)c(C(=O)O)c3OB2O)c2cc(F)c(O)c(O)c2Cl)C(=O)C1=O)Nc1ccc(O)cc1` (stereo partly drawn) [Example 227, (3R)-3-(2-(2-chloro-5-fluoro-3,4-dihydroxyphenyl)-2-(4-(3-(3-(4-hydroxyphenyl)ureido)propyl)-2,3-dioxopiperazine-1-carboxamido)acetamido)-7-fluoro-2-hydroxy-3,4-dihydro-2H-benzo[e][1,2]oxaborinine-8-carboxylic acid], the MIC was < 1 µg/mL in assay [1]; 1 to 2 µg/mL (≈ 1.29 to 2.58 µM) in assay [2]; < 1 µg/mL in assay [3]; > 64 µg/mL in [4]; 16 to 32 µg/mL (≈ 20.6 to 41.3 µM) in assay [5]; < 1 µg/mL in [7]. Further, the MIC was > 64 µg/mL in assay [8]; 2 to 4 µg/mL (≈ 2.58 to 5.16 µM) in [9]; < 1 µg/mL in assay [10]; > 64 µg/mL in assay [12]; 4 to 8 µg/mL (≈ 5.16 to 10.3 µM) in assay [13]; < 1 µg/mL in [14]. In [15], the MIC was > 64 µg/mL. In assay [6], this molecule gave an EC50 of 10 to 50 µM. In addition, in assay [11], the IC50 was < 10 µM.
Take `O=C(NCCCN1CCN(C(=O)NC(C(=O)N[C@H]2Cc3ccc(F)c(C(=O)O)c3OB2O)c2cc(F)c(O)c(O)c2Cl)C(=O)C1=O)Nc1ccncc1` (stereo partly drawn) [Example 228, (3R)-3-(2-(2-chloro-5-fluoro-3,4-dihydroxyphenyl)-2-(2,3-dioxo-4-(3-(3-(pyridin-4-yl)ureido)propyl)piperazine-1-carboxamido)acetamido)-7-fluoro-2-hydroxy-3,4-dihydro-2H-benzo[e][1,2]oxaborinine-8-carboxylic acid]: the MIC in assay [1] is < 1 µg/mL; in [2], 1 to 2 µg/mL (≈ 1.32 to 2.63 µM); in [3], < 1 µg/mL; in assay [4], > 64 µg/mL; in assay [5], > 64 µg/mL; in assay [7], < 1 µg/mL. In addition, the MIC in assay [8] was > 64 µg/mL; in [9], 2 to 4 µg/mL (≈ 2.63 to 5.26 µM); in assay [10] it was < 1 µg/mL; in assay [12] it was > 64 µg/mL; in [13] it was 16 to 32 µg/mL (≈ 21.1 to 42.1 µM); in assay [14], < 1 µg/mL. Besides, the MIC in assay [15] was > 64 µg/mL. Moreover, in [6], the EC50 is < 10 µM. The IC50 in [11] was < 10 µM.

What is called EC50 is the concentration needed to bring the measured effect to its halfway point. A high value points to a less potent agent.
